Columns and labels:
Format in all cases: in vivo
[1] = test system: Common lambsquarters (CHEAL); experiment: Example 2 field test, pre-plant burn-down treatment followed by in-crop glyphosate: weed control; conditions: 86 days after first treatment; pre-plant burn-down (glyphosate 870 g/ha or I.7 50 g/ha), followed by glyphosate 870 g/ha at 53 DAT
Text: (§1) The phenyluracils I and/or the other active ingredients according to the present invention were formulated in a suitable way, either separately or in mixture, e.g. as emulsifiable concentrates (EC), soluble concentrates (SL), suspo-emulsions (SE), suspension concentrates (SC) or water-dispersible granules (WG). The formulation(s) were suspended or emulsified in water as a distribution medium immediately prior to spraying. Afterwards, the aqueous mixture was evenly sprayed on the test plots by means of finely distributing nozzles.
(§2) The test plots were of uniform size (typically between 14 and 37 square meters, each) and the distribution of treated and untreated plots was organized according to a randomised bloc design. Crops were sown in rows at a season which was typical for the region and the crop according to usual farm practice. Weeds were not sown but germinated according to the natural infestation.
(§3) For pre-plant and pre-plant burn-down treatments, the plots were treated before the crop was planted, typically 7 to 28 days prior to planting. For pre-emergence treatments, the plots were treated at planting (plus or minus two days) but before emergence. For post-emergence or in-crop treatments, the plots were treated after the emergence of the weed or crop, typically 20 to 50 days after planting.
(§4) The evaluation of the damage caused by the phenyluracils I and/or the other active ingredients according to the present invention was carried out using a scale from 0 to 100%, compared to the untreated control plots. Here, 0 means no damage and 100 means complete destruction of the plants of a respective weed or crop species.
(§5) Weed control in glyphosate resistant soybeans 86 days after the first treatment; pre-plant burn-down treatment followed by an in-crop glyphosate treatment at 53 DAT; field test.
(§6) In this example, glyphosate (potassium salt) was formulated as a 540 g/l SL and phenyluracil I.7 as a 120 g/l EC. […]

[2] = test system: Giant ragweed (AMBTR); experiment: as above; conditions: 86 days after first treatment; pre-plant burn-down (glyphosate 870 g/ha or I.7 50 g/ha), followed by glyphosate 870 g/ha at 53 DAT
Text: as §1, §2, §3, §4, §5, §6

[3] = test system: Velvetleaf (ABUTH); experiment: as above; conditions: 86 days after first treatment; pre-plant burn-down (glyphosate 870 g/ha or I.7 50 g/ha), followed by glyphosate 870 g/ha at 53 DAT
Text: as §1, §2, §3, §4, §5, §6

[4] = test system: glyphosate resistant soybeans; experiment: Example 1 field test, pre-plant treatment: phytotoxicity in crop; conditions: 44 days after treatment, crop planted at 15 DAT, use rate g/ha: glyphosate 870, I.7 25, I.7 + glyphosate 25 + 870, I.7 + imazethapyr 25 + 70, 0 = no damage, 100 = complete destruction
Text: as §1, §2
(§7) For pre-plant and pre-plant burn-down treatments, the plots were treated before the crop was planted, typically 7 to 28 days prior to planting. For pre-emergence treatments, the plots were treated at planting (plus or minus two days) but before emergence. For post-emergence or in-crop treatments, the plots were treated after the emergence of the weed or crop, typically 20 to 50 days after planting. […]

[5] = test system: glyphosate resistant soybeans; experiment: Example 2 field test, pre-plant burn-down treatment followed by in-crop glyphosate: phytotoxicity in crop; conditions: 86 days after first treatment; pre-plant burn-down (glyphosate 870 g/ha or I.7 50 g/ha), followed by glyphosate 870 g/ha at 53 DAT; crop planted at 8 DAT
Text: as §1, §2, §7

[6] = test system: glyphosate resistant soybeans; experiment: Example 3 field test, pre-plant treatment followed by in-crop glyphosate: phytotoxicity in crop; conditions: 57 days after first treatment; pre-plant (glyphosate 870; I.7 25; I.7 + glyphosate 25 + 870; I.7 + imazethapyr 25 + 70 g/ha), followed by glyphosate 870 g/ha at 42 DAT; crop planted at 12 DAT
Text: as §1, §2, §7

[7] = test system: Giant ragweed (AMBTR); experiment: Example 1 field test, pre-plant treatment: weed control; conditions: 44 days after treatment, use rate g/ha: glyphosate 870, I.7 25, I.7 + glyphosate 25 + 870, I.7 + imazethapyr 25 + 70
Text: as §1, §2, §7

[8] = test system: Velvetleaf (ABUTH); experiment: as above; conditions: 44 days after treatment, use rate g/ha: glyphosate 870, I.7 25, I.7 + glyphosate 25 + 870, I.7 + imazethapyr 25 + 70
Text: as §1, §2, §7

[9] = test system: Common lambsquarters (CHEAL); experiment: Example 3 field test, pre-plant treatment followed by in-crop glyphosate: weed control; conditions: 57 days after first treatment; pre-plant (glyphosate 870; I.7 25; I.7 + glyphosate 25 + 870; I.7 + imazethapyr 25 + 70 g/ha), followed by glyphosate 870 g/ha at 42 DAT
Text: as §1, §2, §7

[10] = test system: Giant ragweed (AMBTR); experiment: as above; conditions: 57 days after first treatment; pre-plant (glyphosate 870; I.7 25; I.7 + glyphosate 25 + 870; I.7 + imazethapyr 25 + 70 g/ha), followed by glyphosate 870 g/ha at 42 DAT
Text: as §1, §2, §7

O=C(O)CNCP(=O)(O)O [Glyphosate, glyphosate]
Weed control (% control) Common lambsquarters (CHEAL) [1]: 89%
Weed control (% control) Giant ragweed (AMBTR) [2]: 86%
Weed control (% control) Velvetleaf (ABUTH) [3]: 91%
Phytotoxicity in glyphosate resistant soybeans (% damage) [4]: 0%
Phytotoxicity in glyphosate resistant soybeans (% damage) [5]: 0%
Phytotoxicity in glyphosate resistant soybeans (% damage) [6]: 0%
Weed control (% control) Giant ragweed (AMBTR) [7]: 86%
Weed control (% control) Velvetleaf (ABUTH) [8]: 17%
Weed control (% control) Common lambsquarters (CHEAL) [9]: 83%
Weed control (% control) Giant ragweed (AMBTR) [10]: 72%
